Among the data in US10118916B2, “Modulators of cystic fibrosis transmembrane conductance regulator protein” (AbbVie S.à.r.l., priority 2016, dated 2018) are EC50 and Maximum % activity values, retold here.

Molecules are shown by their SMILES. A value given as a limit tells only on which side of the number the result lay.

This assay has as its target T1, F508delCFTR (Homo sapiens, UniProt P13569, DEL508-508).
T1 construct: expressed in transfected cells; host or cells: CFBE41o- (human lung derived epithelial cell line), doxycycline-inducible
Nature of the assay: Cell Surface Expression-Horse Radish Peroxidase (CSE-HRP) assay. The class given is cell-based. As to conditions: CFBE41o-F508delCFTR-HRP cells; for EC50: F508delCFTR cell surface expression, luminescence, 18-24 hours at 33° C., highest concentration 20 μM; for Maximum % activity: maximum at any tested concentration, normalized to on-plate positive control (3 μM). From the text: Cell Surface Expression-Horse Radish Peroxidase (CSE-HRP) Assay:
A cellular assay for measuring the F508delCFTR cell surface expression after correction with test compounds was developed in human lung derived epithelial cell line (CFBE41o-) (Veit G et al, (2012) Mol Biol Cell. 23(21): 4188-4202). This was achieved by expressing the F508delCFTR mutation along with a horseradish peroxidase (HRP) in the fourth exofacial loop and then measuring the HRP activity using luminescence readout from these cells, CFBE41o-F508delCFTR-HRP, that were incubated overnight with the test corrector compounds. Briefly, for this primary assay, the CFBE41o-F508delCFTR-HRP cells were plated in 384-well plates (Greiner Bio-one; Cat 781080) at 4,000 cells/well along with 0.5 μg/mL doxycycline to induce the F508delCFTR-HRP expression and further incubated at 37° C., 5% CO2 for 72 hours. The test compounds were then added at the required concentrations and further incubated for 18-24 hours at 33° C. The highest concentration tested was 20 μM with an 8-point concentration response curve using a 3-fold dilution. Three replicate plates were run to determine one EC50. All plates contained negative controls (dimethyl sulfoxide, DMSO) and positive controls (3 μM of 3-[(2R,4R)-4-({[1-(2,2-difluoro-1,3-benzodioxol-5-yl)cyclopropyl]carbonyl}amino)-7-methoxy-3,4-dihydro-2H-chromen-2-yl]benzoic acid) as well as on-plate concentration response of the positive control. Post incubation, the plates were washed 5× times with Dulbecco's phosphate buffered saline (DPBS), followed by the addition of the HRP substrate, luminol (50 μL), and measuring the HRP activity using luminescence readout on EnVision® Multilabel Plate Reader (Perkin Elmer; product number 2104-0010). The raw counts from the experiment are analyzed using Accelrys® Assay Explorer v3.3.
Z′ greater than 0.5 was used as passing quality control criteria for the plates.
The Z′ is defined as: 1−[3*SDPositive Control+3*SDNegative Control/Absolute(MeanPositive Control−MeanNegative Control)] wherein “SD” is standard deviation.
The % activity measured at each of the 8 test concentrations of the test compound was normalized to the on-plate positive control using the following formula: % activity=[(test compound response−DMSO response)/(positive control response−DMSO response)]*100
The maximum % activity achieved for the test compound at any tested concentration is presented in Table 1 along with the EC50 calculated using the following general sigmoidal curve with variable Hill slope equation (described as Model 42 in the Accelrys® Assay Explorer v3.3 software): y=(a−d)/(1+(x/c)^b)+d
General sigmoidal curve with concentration, response, top, bottom, EC50 and Hill slope.
This model describes a sigmoidal curve with an adjustable baseline, a. The equation can be used to fit curves where response is either increasing or decreasing with respect to the independent variable, “x”. • “x” is a concentration of drug under test. • “y” is the response. • “a” is the maximum response, and “d” is the minimum response • “c” is the inflection point (EC50) for the curve. That is, “y” is halfway between the lower and upper asymptotes when x=c. • “b” is the slope-factor or Hill coefficient. The sign of b is positive when the response increases with increasing dose and is negative when the response decreases with increasing dose (inhibition).

T1 sequence (P13569 with tags, fused parts or gaps DEL508-508): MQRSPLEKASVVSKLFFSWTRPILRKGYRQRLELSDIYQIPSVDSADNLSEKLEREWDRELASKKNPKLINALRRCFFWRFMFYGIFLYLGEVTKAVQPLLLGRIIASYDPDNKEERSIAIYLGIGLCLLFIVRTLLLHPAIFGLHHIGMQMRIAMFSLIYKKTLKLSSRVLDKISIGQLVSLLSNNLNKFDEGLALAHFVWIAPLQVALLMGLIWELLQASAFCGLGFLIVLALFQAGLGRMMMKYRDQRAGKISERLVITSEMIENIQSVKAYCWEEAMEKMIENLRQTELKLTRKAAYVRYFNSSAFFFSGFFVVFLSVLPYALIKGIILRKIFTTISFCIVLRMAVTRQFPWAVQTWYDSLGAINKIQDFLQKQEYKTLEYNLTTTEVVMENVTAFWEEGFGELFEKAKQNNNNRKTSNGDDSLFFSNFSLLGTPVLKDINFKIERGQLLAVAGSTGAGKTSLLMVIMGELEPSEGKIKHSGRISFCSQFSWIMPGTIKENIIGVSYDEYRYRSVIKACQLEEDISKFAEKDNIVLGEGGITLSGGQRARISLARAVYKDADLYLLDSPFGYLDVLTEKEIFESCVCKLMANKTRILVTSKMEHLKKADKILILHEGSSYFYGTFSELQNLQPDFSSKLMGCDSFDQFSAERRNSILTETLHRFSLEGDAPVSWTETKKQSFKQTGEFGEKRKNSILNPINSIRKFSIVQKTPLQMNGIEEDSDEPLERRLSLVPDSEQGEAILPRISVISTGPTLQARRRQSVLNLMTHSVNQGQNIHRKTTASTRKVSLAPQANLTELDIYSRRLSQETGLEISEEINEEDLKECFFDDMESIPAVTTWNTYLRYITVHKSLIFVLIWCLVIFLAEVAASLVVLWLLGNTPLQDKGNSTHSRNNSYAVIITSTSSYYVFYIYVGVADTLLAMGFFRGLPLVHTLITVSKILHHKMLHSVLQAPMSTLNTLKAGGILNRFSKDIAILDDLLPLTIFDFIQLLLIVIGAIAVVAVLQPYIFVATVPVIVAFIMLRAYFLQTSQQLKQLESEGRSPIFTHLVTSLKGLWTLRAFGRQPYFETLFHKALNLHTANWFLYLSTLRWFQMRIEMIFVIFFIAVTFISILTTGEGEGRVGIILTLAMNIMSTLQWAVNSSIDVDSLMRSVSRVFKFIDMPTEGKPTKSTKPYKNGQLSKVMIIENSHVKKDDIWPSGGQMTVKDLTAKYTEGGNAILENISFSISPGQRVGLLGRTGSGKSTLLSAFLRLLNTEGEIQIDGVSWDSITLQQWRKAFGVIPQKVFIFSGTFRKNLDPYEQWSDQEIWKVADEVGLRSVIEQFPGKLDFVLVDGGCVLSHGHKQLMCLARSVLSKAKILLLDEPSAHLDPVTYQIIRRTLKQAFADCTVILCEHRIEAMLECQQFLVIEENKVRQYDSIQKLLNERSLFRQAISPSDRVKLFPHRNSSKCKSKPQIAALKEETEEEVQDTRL

The term EC50 denotes the concentration at which the effect is half-maximal. A higher EC50 goes with a less potent agent. As to `COc1ccc2c(c1)CC[C@@]2(C)C(=O)N[C@@H]1C[C@H](c2cccc(C(=O)O)c2)Oc2cc(OC)ccc21` [Example 33, 3-[(2R,4R)-7-methoxy-4-{[(1R)-5-methoxy-1-methyl-2,3-dihydro-1H-indene-1-carbonyl]amino}-3,4-dihydro-2H-1-benzopyran-2-yl]benzoic acid], the EC50 was 270 nM and the Maximum % activity is 25.9%.

For the molecule `COc1ccc2c(c1)O[C@@H](c1ccc(C(=O)O)cc1)C[C@H]2NC(=O)C1(c2ccc(Cl)c(Cl)c2)CCC1` [Example 95, 4-[(2R,4R)-4-{[1-(3,4-dichlorophenyl)cyclobutane-1-carbonyl]amino}-7-methoxy-3,4-dihydro-2H-1-benzopyran-2-yl]benzoic acid], a half-maximal response (EC50) required 1330 nM and the Maximum % activity is given as 76.0%.

As to `COC(=O)c1cccc([C@H]2C[C@@H](NC(=O)[C@]3(C)CCc4cc(OC)ccc43)c3ccccc3O2)c1` [Example 28, methyl 3-[(2R,4R)-4-{[(1R)-5-methoxy-1-methyl-2,3-dihydro-1H-indene-1-carbonyl]amino}-3,4-dihydro-2H-1-benzopyran-2-yl]benzoate], the EC50 turned out to be 2490 nM and the Maximum % activity is reported as 21.2%.

On to `COc1ccc2c(c1)O[C@@H](c1ccc(C(=O)O)cc1)C[C@H]2NC(=O)C1(c2ccccc2)CCC1` [Example 102, 4-{(2R,4R)-7-methoxy-4-[(1-phenylcyclobutane-1-carbonyl)amino]-3,4-dihydro-2H-1-benzopyran-2-yl}benzoic acid], for which the EC50 is greater than 20000 nM and the Maximum % activity is listed as 18.1%.

In the case of `COc1ccc(C(C)(C)C(=O)N[C@@H]2C[C@H](c3ccc(C(=O)O)cc3)Oc3cc(OC)ccc32)c(F)c1` [Example 117, 4-{(2R,4R)-4-[2-(2-fluoro-4-methoxyphenyl)-2-methylpropanamido]-7-methoxy-3,4-dihydro-2H-1-benzopyran-2-yl}benzoic acid], a half-maximal effect (EC50) was put at 350 nM and the Maximum % activity was found to be 47.0%.

As to `COc1ccc2c(c1)O[C@@H](c1ccc(C(=O)O)cc1)C[C@H]2NC(=O)C(C)(C)Oc1ccc(Cl)c(C)c1` [Example 77, 4-{(2R,4R)-4-[2-(4-chloro-3-methylphenoxy)-2-methylpropanamido]-7-methoxy-3,4-dihydro-2H-1-benzopyran-2-yl}benzoic acid], the EC50 is greater than 20000 nM and the Maximum % activity was determined as 8.0%.

Turning to `COc1ccc(C2(C(=O)N[C@@H]3C[C@H](c4ccc(C(=O)O)cc4)Oc4cc(OC)ccc43)CCCC2)cc1` [Example 114, 4-[(2R,4R)-7-methoxy-4-{[1-(4-methoxyphenyl)cyclopentane-1-carbonyl]amino}-3,4-dihydro-2H-1-benzopyran-2-yl]benzoic acid], the EC50 is greater than 20000 nM and the Maximum % activity was 2.2%.

Regarding `COc1ccc2c(c1)O[C@@H](c1ccc(C(=O)O)cc1)C[C@H]2NC(=O)C1(c2ccccc2)CCC(F)(F)C1` (stereo partly drawn) [Example 80, 4-{(2R,4R)-4-[(3,3-difluoro-1-phenylcyclopentane-1-carbonyl)amino]-7-methoxy-3,4-dihydro-2H-1-benzopyran-2-yl}benzoic acid], the EC50 was greater than 20000 nM and the Maximum % activity was −0.2%.

`COc1ccc2c(c1)O[C@@H](c1cccc(C(=O)O)c1)C[C@H]2NC(=O)C1(C)CCc2cc(Cl)ccc21` (stereo partly drawn) [Example 36, 3-{(2R,4R)-4-[(5-chloro-1-methyl-2,3-dihydro-1H-indene-1-carbonyl)amino]-7-methoxy-3,4-dihydro-2H-1-benzopyran-2-yl}benzoic acid]: the EC50 was 670 nM and the Maximum % activity is listed as 31.4%.

As to `COc1ccc2c(c1)O[C@@H](c1ccc(C(=O)O)cc1)C[C@H]2NC(=O)C1(c2ccc(F)cc2)CCCC1` [Example 93, 4-[(2R,4R)-4-{[1-(4-fluorophenyl)cyclopentane-1-carbonyl]amino}-7-methoxy-3,4-dihydro-2H-1-benzopyran-2-yl]benzoic acid], the EC50 is greater than 20000 nM and the Maximum % activity is 5.7%.

In the case of `COC(=O)c1cccc([C@H]2C[C@@H](NC(=O)[C@@]3(C)CCc4cc(OC)ccc43)c3ccc(OC)cc3O2)c1` [Example 31, methyl 3-[(2R,4R)-7-methoxy-4-{[(1S)-5-methoxy-1-methyl-2,3-dihydro-1H-indene-1-carbonyl]amino}-3,4-dihydro-2H-1-benzopyran-2-yl]benzoate], a half-maximal response (EC50) required 400 nM and the Maximum % activity amounted to 63.6%.

For the molecule `CCOC(=O)[C@H]1CC[C@H]([C@H]2C[C@@H](NC(=O)C3(c4ccc5c(c4)OC(F)(F)O5)CC3)c3ccc(OC(F)(F)F)cc3O2)CC1` [Example 12, ethyl trans-4-[(2R,4R)-4-{[1-(2,2-difluoro-2H-1,3-benzodioxol-5-yl)cyclopropane-1-carbonyl]amino}-7-(trifluoromethoxy)-3,4-dihydro-2H-1-benzopyran-2-yl]cyclohexane-1-carboxylate], it took 70 nM to reach a half-maximal effect (EC50) and the Maximum % activity stood at 135.0%.

`COc1ccc2c(c1)O[C@@H](c1ccc(C(=O)O)cc1)C[C@H]2NC(=O)C(C)(C)c1ccc2c(c1)OCO2` [Example 120, 4-{(2R,4R)-4-[2-(2H-1,3-benzodioxol-5-yl)-2-methylpropanamido]-7-methoxy-3,4-dihydro-2H-1-benzopyran-2-yl}benzoic acid]: the EC50 is 50 nM and the Maximum % activity is reported as 73.9%.

In the case of `COc1ccc2c(c1)O[C@@H](c1ccc(C(=O)O)cc1)C[C@H]2NC(=O)C1(c2ccc(C(F)(F)F)cc2)CC1` [Example 5, 4-[(2R,4R)-7-methoxy-4-({1-[4-(trifluoromethyl)phenyl]cyclopropane-1-carbonyl}amino)-3,4-dihydro-2H-1-benzopyran-2-yl]benzoic acid], the midpoint of the response, the EC50, lay at 210 nM and the Maximum % activity worked out at 120.0%.

For `COc1ccc2c(c1)O[C@@H](c1ccc(C(=O)O)cc1)C[C@H]2NC(=O)C1(c2cccc(Br)c2)CC1` [Example 88, 4-[(2R,4R)-4-{[1-(3-bromophenyl)cyclopropane-1-carbonyl]amino}-7-methoxy-3,4-dihydro-2H-1-benzopyran-2-yl]benzoic acid], the EC50 turned out to be 640 nM and the Maximum % activity was found to be 44.0%.

`COc1ccc2c(c1)O[C@@H](c1cccc(C(=O)O)c1)C[C@H]2NC(=O)C(C)(C)c1ccc(OCC(C)C)cc1` [Example 37, 3-[(2R,4R)-7-methoxy-4-{2-methyl-2-[4-(2-methylpropoxy)phenyl]propanamido}-3,4-dihydro-2H-1-benzopyran-2-yl]benzoic acid]: the EC50 was greater than 20000 nM and the Maximum % activity is given as 6.1%.

With `COC(=O)c1cccc([C@H]2C[C@@H](NC(=O)C3(C)CCc4cc(C)ccc43)c3ccc(OC)cc3O2)c1` (mixture of isomers) [Example 123, methyl 3-{(2R,4R)-4-[(1,5-dimethyl-2,3-dihydro-1H-indene-1-carbonyl)amino]-7-methoxy-3,4-dihydro-2H-1-benzopyran-2-yl}benzoate], the EC50 turned out to be 450 nM and the Maximum % activity is recorded as 80.8%.

For the molecule `COc1ccc2c(c1)O[C@@H](c1ccc(C(=O)O)cc1)C[C@H]2NC(=O)C1(c2ccc(OC(F)(F)F)cc2)CCC1` [Example 70, 4-[(2R,4R)-7-methoxy-4-({1-[4-(trifluoromethoxy)phenyl]cyclobutane-1-carbonyl}amino)-3,4-dihydro-2H-1-benzopyran-2-yl]benzoic acid], the EC50 was determined as 2210 nM and the Maximum % activity came out at 28.0%.

On to `COc1ccc2c(c1)O[C@@H](c1ccc(C(=O)O)cc1)C[C@H]2NC(=O)C1(c2ccc(C)cc2)CC1` [Example 6, 4-[(2R,4R)-7-methoxy-4-{[1-(4-methylphenyl)cyclopropane-1-carbonyl]amino}-3,4-dihydro-2H-1-benzopyran-2-yl]benzoic acid], for which the EC50 is 90 nM and the Maximum % activity was determined as 95.9%.
